Structures can show the parent of a compound that is named as a salt. Where two headings read alike, the source gives them in different places.
Legend:
[1] = system: influenza viruses; settings: cited from earlier work
[2] = system: human corona virus; settings: cited from earlier work
[3] = system: adenovirus; settings: cited from earlier work
[4] = system: rhinovirus; settings: in particular human tracheal epithelial cells, rhinovirus group 14; cited from earlier work
[5] = system: ICAM-1; settings: treated cells; cited from earlier work
[6] = system: rhinovirus; experiment: Blocking of rhinovirus infection of epithelial cells; effective inhibitory concentrations (Tables 1 and 2, FIG. 3); assay type: cell-based
Excerpt: (§1) Rhinovirus capable of viral replication causes the release of the pro-inflammatory […] chemokines, IP-10 and RANTES from infected epithelial cells.
(§2) For purposes of illustration, the effects of targeted delivery as opposed to systemic delivery of a representative anti-malarial, hydroxychloroquine, for prevention of rhinovirus infection is compared. As shown in Tables 1 and 2 and in FIG. 3, the effective inhibitory concentrations of this agent ranges from about 50 to 1000 microM (or about 20 to 400 micrograms/ml). Safe oral dosing of anti-malarials, such as chloroquine and hydroxychloroquine yields serum levels far below these ranges: 0.6 to 0.9 microM for chloroquine and 1.4 to 1.5 microM for hydroxychloroquine (MacKenzie, A H, “Pharmacologic actions of the 4-aminoquinoline compounds”, Am J Med, 1983, July: 5-10). Moreover, the inventor has noted that oral or systemic administration of HCQ cannot provide adequate plasma levels of HCQ to achieveefficacious results. Even at doses nearly twice that used in humans, peak serum concentrations following intravenous of administration of 10 mg/kg HCQ in rats was only 2 mcg/ml (FIG. 4); in dogs, peak whole blood concentrations were less than 3 mcg/ml (FIG. 5).

[7] = cited from earlier work
[8] = system: antigen-induced early (EAR) and late airway responses (LAR) and airway hyperresponsiveness (AHR); settings: aerosolized; total dose of only 10 mg/d; cited from earlier work
[9] = parameters: species or system rats; settings: rat, in vivo, iv, 10 mg/kg
Excerpt: FIG. 4 graphically depicts the mean whole blood concentration of HCQ following single day intravenous doses to male and female rats.
as §2

[10] = system: asthma; settings: oral; cited from earlier work
[11] = system: IP-10/RANTES; experiment: Effect of HCQ on IP-10/RANTES production in primary human epithelial cells with exposure to HRV-16; assay type: cell-based
Excerpt: FIG. 1 graphically depicts the effect of 50 μm HCQ in the elaboration of IP-10 and RANTES in primary human epithelial cells with exposure to human rhinovirus type 16.
as §1
(§3) For example, treatment with hydroxychloroquine blocks the elaboration of the pro-inflammatory chemokines, IP-10 and RANTES from both primary tonsillar and immortalized epithelial cell lines (Table 1 & 2, FIG. 1 & 2). Since these chemokines figure prominently in generation of inflammatory responses and symptoms, this effect has important therapeutic implications.

[12] = in vivo, po; cited from earlier work
[13] = system: Eosinophil; experiment: Eosinophil total superoxide production (FIG. 3); assay type: cell-based
Excerpt: FIG. 3 graphically depicts the effect of HCQ on Eosinophil total Superoxide production. In FIG. 3, nil refers to control, i.e., the absence of HCQ; PMA refers to phorbol myristic acetate; PAF refers to platelet activating factor, and SE refers to standard error of the mean. The data in FIG. 3 are presented as means±SE; n=3. The * indicates p<0.05; ** indicates p<0.01.
Anti-malarial agents also block the secondary aspects of rhinovirus infections. Without wishing to be bound, it is believed that they are inhibit by blocking the secondary events of viral infections.

[14] = parameters: species or system dogs; settings: dog, in vivo, iv
Excerpt: FIG. 5 graphically depicts the mean whole blood concentration of HCQ following single day intravenous doses to male and female dogs.
as §2

[15] = system: IP-10 and RANTES; experiment: HCQ preincubation of BEAS-2B epithelial cells exposed to HRV-16, assayed for IP-10 and RANTES; assay type: cell-based, human; settings: for IP-10: 6 hours preincubation / IP-10: 24 hours preincubation / RANTES: 6 hours preincubation: BEAS-2B
Procedure: FIG. 2 depicts graphically the effect of varying concentrations of HCQ preincubation on the elaboration of […] and RANTES in BEAS-2B epithelial cells exposed to human rhinovirus-16.
as §1, §3

Cl.N [ammonium chloride]
cellular infection by influenza viruses [1]: block cellular infection
infection of human corona virus [2]: block infection
cellular infection by adenovirus [3]: block cellular infection

CO/C1=C\C(C)=C\[C@@H](C)[C@@H](O)[C@@H](C)C/C(C)=C/C=C/[C@H](OC)[C@@H]([C@@H](C)[C@@H](O)[C@H](C)[C@@]2(O)C[C@@H](O)[C@H](C)[C@@H](C(C)C)O2)OC1=O [bafilomycin A1]
cellular infection by influenza viruses [1]: block cellular infection
infection of human corona virus [2]: block infection
infection by rhinovirus [4]: inhibit infection
expression of ICAM-1 [5]: reduces expression
cellular infection by adenovirus [3]: block cellular infection

CCN(CC)CCCC(C)Nc1ccnc2cc(Cl)ccc12 (stereo not shown) [chloroquine]
cellular infection by influenza viruses [1]: block cellular infection
rhinovirus infection of epithelial cells [6]: block rhinovirus infection
cellular infection by adenovirus [3]: block cellular infection

CCN(CCO)CCCC(C)Nc1ccnc2cc(Cl)ccc12 (stereo not shown) [hydroxychloroquine sulfate]
solubility in water [7]: readily soluble in water

hydroxychloroquine [HCQ]
effect in asthmatic sheep [8]: therapeutic effects
peak serum concentrations [9]: 2 µg/mL
rhinovirus infection of epithelial cells [6]: block rhinovirus infection
time of treatment after which therapeutic effect begins [10]: > 22 weeks
IP-10: hours of preincubation 24 ([11]; HRV-16 + 50 microM HCQ, 24 hours of preincubation, primary human epithelial cells): 31 pg/mL
IP-10: hours of preincubation 48 ([11]; HRV-16 + 50 microM HCQ, 48 hours of preincubation, primary human epithelial cells): 112 pg/mL
RANTES: hours of preincubation 48 ([11]; HRV-16 + HCQ, 48 hours of preincubation, primary human epithelial cells): 509 pg/mL
release of pro-inflammatory CXC chemokines ([11]; primary epithelial cells treated, then infected with RV): do not release
serum levels [12]: 1400 to 1500 nM
concentration at which IL-5 or PAF induced eosinophil superoxide is inhibited [13]: at least 0.5 mM
concentration at which IL-5 or PAF induced eosinophil superoxide is inhibited ([13]; conversion of the mM value): about 200 mcg/ml
peak whole blood concentrations [14]: less than 3 mcg/ml
IP-10: 6 hours preincubation ([15]; HRV-16 + 0.01 μM HCQ): 3084 pg/mL
IP-10: 24 hours preincubation ([15]; HRV-16 + 0.01 μM HCQ): 2506 pg/mL
RANTES: 6 hours preincubation ([15]; HRV-16 + 0.01 μM HCQ): 3326 pg/mL
IP-10: 6 hours preincubation ([15]; HRV-16 + 0.1 μM HCQ): 2914 pg/mL
IP-10: 24 hours preincubation ([15]; HRV-16 + 0.1 μM HCQ): 1814 pg/mL
RANTES: 6 hours preincubation ([15]; HRV-16 + 0.1 μM HCQ): 3128 pg/mL
IP-10: 6 hours preincubation ([15]; HRV-16 + 1 μM HCQ): 3045 pg/mL
IP-10: 24 hours preincubation ([15]; HRV-16 + 1 μM HCQ): 2098 pg/mL
RANTES: 6 hours preincubation ([15]; HRV-16 + 1 μM HCQ): 1994 pg/mL
IP-10: 6 hours preincubation ([15]; HRV-16 + 50 μM HCQ): 31 pg/mL
IP-10: 24 hours preincubation ([15]; HRV-16 + 50 μM HCQ): 31 pg/mL
RANTES: 6 hours preincubation ([15]; HRV-16 + 50 μM HCQ): 0 pg/mL
release of pro-inflammatory CXC chemokines ([15]; pre-incubation of immortalized epithelial cells (BEAS-2B)): has the same effect
